The results in this text go back to ChEMBL document CHEMBL4041485, “Bissubvilides A and B, Cembrane-Capnosane Heterodimers from the Soft Coral Sarcophyton subviride” (J Nat Prod, 2016).

Holding throughout (type): functional, cell-based
One experiment deals with Huh-7. Description: Cytotoxicity against human HuH7 cells by CCK-8 assay. On the technique in general: Tetrazolium assays rely on reduction of a dye to a coloured formazan, in cell work by metabolically active cells.
A further experiment relates to A549. Description: Cytotoxicity against human A549 cells by MTT assay.
The next experiment has as its system MG-63. Description: Cytotoxicity against human MG63 cells by MTT assay.

Counter-ions that a name gives are not always drawn.

Turning to `CC1=C2CCC3=CCC[C@@](C)(OC3=O)[C@@H](O)CC/C(C)=C/[C@@H]2[C@@]23CC/C(C(C)C)=C\[C@H]4[C@@](C)(O)CC[C@]4(O)[C@@](C)(CC[C@@H]2C1)OC3=O`, the IC50 with Huh-7 was above 50 µM; with A549 it was above 25 µM; with MG-63, above 30 µM.
The corresponding values for `C=C(C)/C1=C/[C@H]2[C@@](C)(O)CC[C@]2(O)[C@@]2(C)CC[C@@H]3CC(C)=C4CCC5=CCC[C@@](C)(OC5=O)[C@@H](O)CC/C(C)=C/[C@@H]4[C@]3(CC1)C(=O)O2` are above 50 µM, above 25 µM and above 30 µM.
For `COc1cccc2c1C(=O)c1c(O)c3c(c(O)c1C2=O)C[C@@](O)(C(=O)CO)C[C@@H]3O[C@H]1C[C@H](N)[C@H](O)[C@H](C)O1` [DOXORUBICIN HYDROCHLORIDE] the same measures were 14.8 µM, 2.9 µM and 2.2 µM.

As a reminder, the IC50 is the concentration that gives 50% inhibition. Higher therefore signals a need for much substance.
